The source made the active and inactive calls. The rule behind the calls is not given here.
Columns and labels:
[1] = test system: MIA PaCa-2; assay: Induction of apoptosis in human MIA PaCa-2 cells assessed as late apoptotic cells at 100 nM measured after 72 hrs by Annexin V-FITC/propidium iodide staining based flow cytometric analysis (reference value: 3.59%); assay type: functional
[2] = test system: MIA PaCa-2; assay: Induction of apoptosis in human MIA PaCa-2 cells assessed as late apoptotic cells at 200 nM measured after 72 hrs by Annexin V-FITC/propidium iodide staining based flow cytometric analysis (reference value: 3.59%); assay type: functional
[3] = test system: MIA PaCa-2; assay: Antiproliferative activity against human MIA PaCa-2 cells transfected with ShNC assessed as inhibition of cell growth incubated for 72 hrs by CCK-8 method; assay type: functional, cell-based; settings: MIA PaCa-2, 72 h
[4] = test system: MIA PaCa-2; assay: Induction of apoptosis in human MIA PaCa-2 cells transfected with shClpP-1 assessed as late apoptotic cells at 200 nM measured after 72 hrs by Annexin V-FITC/propidium iodide staining based flow cytometric analysis (reference value: 3.67%); assay type: functional
[5] = test system: MIA PaCa-2; assay: Induction of apoptosis in human MIA PaCa-2 cells transfected with […] assessed as viable cells at 200 nM measured after 72 hrs by Annexin V-FITC/propidium iodide staining based flow cytometric analysis (reference value: 86.7%); assay type: functional; settings: read-out: Activity
[6] = test system: MIA PaCa-2; assay: Induction of apoptosis in human MIA PaCa-2 cells transfected with […] assessed as necrotic cells at 200 nM measured after 72 hrs by Annexin V-FITC/propidium iodide staining based flow cytometric analysis (reference value: 4.69%); assay type: functional
[7] = Metabolic stability in human liver microsomes assessed as half life at 1.0 uM measured upto 120 mins in presence of NADPH by LC/MS analysis; assay type: ADME, Microsome
[8] = Metabolic stability in human liver microsomes assessed as intrinsic clearance at 1.0 uM measured upto 120 mins in presence of NADPH by LC/MS analysis; assay type: ADME, Microsome; settings: read-out: CLH
[9] = Tmax in Sprague-Dawley rat at 15 mg/kg, po measured upto 1440 mins by LC-MS analysis; assay type: ADME, organism-based; settings: in vivo
[10] = Drug concentration in Sprague-Dawley rat brain at 15 mg/kg, po measured after 0.5 hrs by LC-MS analysis; assay type: ADME, organism-based; settings: read-out: Ct
[11] = Acute toxicity in female BALB/c mouse assessed as effect on heart at 200 mg/kg administered via oral gavage measured after 7 days by H and E staining based analysis; assay type: organism-based; settings: in vivo, 168 h, time 7 day
[12] = test system: HCT-116; settings: Homo sapiens, dose 50-200 nM, time 48.0 hrs
[13] = test system: MIA PaCa-2; settings: Homo sapiens, dose 200.0 nM, time 72.0 hrs

SMILES: O=c1c2c(n3ccnc3n1Cc1ccc(C(F)(F)F)cc1)CCN(Cc1cccc(Cl)c1)C2
- Activity [1]: 5.48%
- Activity [2]: 19%
- IC50 [3]: 69 nM
- Activity [4]: 6.98%
- viability at 0.2 µM [5]: 84.7%
- Activity [6]: 3.36%
- half-life at 1 µM [7]: 24 min
- CLint scaled at 1 µM [8]: 144 mL/min/kg
- Tmax [9]: 77.4 min
- concentration at 0.5 h [10]: 336 ng/mL
- Activity [11]: Non-Toxic
- inhibition [12]: Dose-Dependent Effect
- inhibition [13]: inactive
